Where “and” joins values, the source holds several entries; their conditions need not be identical. Equal values may be shown once. Read-outs that look alike come from different tables or passages of the source.
Assays:
[1] = biological target: T1, Human Topoisomerase II (Homo sapiens, UniProt P11388); assay: Human topoisomerase II decatenation gel assay; type: biochemical
T1 construct: purchased Inspiralis (Norwich, UK)
Protocol: (§1) S. aureus and E. coli DNA gyrase supercoiling and topo IV decatenation assay kits, as well as human topoisomerase II decatenation assay kits, were provided by Inspiralis (Norwich, UK). Assays were performed according to the manufacturer’s instructions. The compounds were serially diluted (1:3 dilutions starting from a 300 μM final concentration) and assayed in a reaction mixture to obtain concentration-response curves in two different replicate experiments. The final concentration of DMSO in the assays was 1% (v/v). The reactions were terminated by the addition of 30 μl chloroform/isoamyl alcohol (26:1) and 30 μl Stop Dye (40% sucrose, 100 mM Tris HCl pH 7.5, 1 mM EDTA, 0.5 μg/ml bromophenol blue), after which the samples were loaded onto a 1.0% TAE ([…]) gel that was then run at 80 V for 2 hours. DNA bands were visualized by ethidium bromide staining the gel for 10 minutes, which was then destained for 10 minutes in water and analysed using gel documentation equipment (Syngene, Cambridge, UK). The DNA in each band was quantitated using Syngene Gene Tools software. Raw gel data (fluorescent band volumes) were converted by the software to percentages of the control (the fully supercoiled or decatenated DNA band). […] The global curve fit non-linear regression tool was used to calculate the IC50 values. The results are expressed as the average values obtained after calculating the IC50 from each replicate run.

[2] = tested on: N. gonorrhoeae ATCC 19424; assay: MIC, agar dilution; type: cell-based; conditions: Neisseria gonorrhoeae, ATCC19424; N. gonorrhoeae ATCC 19424, ciprofloxacin-susceptible
Protocol: (§2) MICs were determined by the broth microdilution method (the agar dilution method was used only for N. gonorrhoeae) according to CLSI guidelines.

[3] = tested on: N. gonorrhoeae WHO K; assay: MIC, agar dilution; type: cell-based; conditions: Neisseria gonorrhoeae, ciprofloxacin-resistant
Protocol: as §2

[4] = tested on: N. gonorrhoeae ATCC 49226; assay: MIC, agar dilution; type: cell-based; conditions: Neisseria gonorrhoeae, ATCC49226; N. gonorrhoeae ATCC 49226, ciprofloxacin-susceptible
Protocol: as §2

[5] = tested on: N. gonorrhoeae WHO N; assay: MIC, agar dilution; type: cell-based; conditions: Neisseria gonorrhoeae, ciprofloxacin-resistant
Protocol: as §2

[6] = tested on: N. gonorrhoeae WHO L; assay: MIC, agar dilution; type: cell-based; conditions: Neisseria gonorrhoeae, ciprofloxacin-resistant
Protocol: as §2

[7] = biological target: T2, E. coli Topoisomerase IV (Escherichia coli, UniProt P0AFI2); assay: E. coli topoisomerase IV decatenation gel assay; type: biochemical
T2 construct: purchased Inspiralis (Norwich, UK)
Protocol: as §1

[8] = biological target: T3, S. aureus Topoisomerase IV (Staphylococcus aureus, UniProt P0C1U9); assay: S. aureus topoisomerase IV decatenation gel assay; type: biochemical
T3 construct: purchased Inspiralis (Norwich, UK)
Protocol: as §1

[9] = tested on: S. aureus ATCC 29213; assay: MIC, broth microdilution; type: cell-based, Staphylococcus aureus; conditions: for MIC fold lower than that of ciprofloxacin: S. aureus ATCC 29213; for MIC: Staphylococcus aureus
Protocol: as §2

[10] = tested on: E. coli TolC- mutant; assay: microbe, parasite or virus in culture; type: cell-based; conditions: Escherichia coli
Protocol: (§3) The bacterial reference strains used in this study were purchased from ATCC (American Type Culture Collection) via LGC Standards (Middlesex, UK). […] Clinical MDR isolates were provided by Aptuit, the IHMA Europa Sàrl repository (Epalinges, Switzerland) and the Statens Serum Institute (Copenhagen, Denmark).
as §2

[11] = tested on: E. faecalis clinical isolates (n = 12) vanA (6)/vanB (6); assay: MIC, multidrug-resistant clinical isolates; type: cell-based; conditions: Enterococcus faecalis; for MIC: read-out: MIC range
Protocol: as §3, §2
(§4) The results obtained using clinical isolates are reported as MIC50 and MIC90 values.

[12] = tested on: E. faecium clinical isolates (n = 12) vanA (6)/vanB (6); assay: MIC, multidrug-resistant clinical isolates; type: cell-based; conditions: Enterococcus faecium; for MIC: read-out: MIC range
Protocol: as §3, §2, §4

[13] = tested on: N. gonorrhoeae clinical isolates (n = 38); assay: microbe, parasite or virus in culture; type: cell-based, Neisseria gonorrhoeae; conditions: for MIC50 / MIC90: Neisseria gonorrhoeae
Protocol: as §3, §2, §4

[14] = biological target: T4, E. coli DNA gyrase (Escherichia coli, UniProt P0AES4); assay: E. coli DNA gyrase supercoiling gel assay; type: biochemical
T4 construct: purchased Inspiralis (Norwich, UK)
Protocol: as §1

[15] = biological target: T5, S. aureus DNA gyrase (Staphylococcus aureus, UniProt P20831); assay: S. aureus DNA gyrase supercoiling gel assay; type: biochemical
T5 construct: purchased Inspiralis (Norwich, UK)
Protocol: as §1

[16] = tested on: E. faecalis ATCC 29212; assay: MIC, broth microdilution; type: cell-based; conditions: Enterococcus faecalis, ATCC29212; E. faecalis ATCC 29212, ciprofloxacin-susceptible
Protocol: as §2

[17] = tested on: S. aureus BAA-1720; assay: MIC, broth microdilution; type: cell-based; conditions: Staphylococcus aureus, BAA1720; S. aureus BAA-1720, ciprofloxacin-resistant
Protocol: as §2

[18] = tested on: P. aeruginosa ATCC 27853; assay: MIC, broth microdilution; type: cell-based; conditions: Pseudomonas aeruginosa, ATCC27853; P. aeruginosa ATCC 27853, ciprofloxacin-susceptible
Protocol: as §2

[19] = tested on: S. pneumoniae ATCC 49619; assay: MIC, broth microdilution; type: cell-based; conditions: Streptococcus pneumoniae, ATCC49619; S. pneumoniae ATCC 49619, ciprofloxacin-susceptible
Protocol: as §2

[20] = tested on: H. influenzae ATCC 49766; assay: MIC, broth microdilution; type: cell-based; conditions: Haemophilus influenzae, ATCC49766; H. influenzae ATCC 49766, ciprofloxacin-susceptible
Protocol: as §2

[21] = tested on: E. coli ATCC 25922; assay: MIC, broth microdilution; type: cell-based; conditions: Escherichia coli, ATCC25922; E. coli ATCC 25922, ciprofloxacin-susceptible
Protocol: as §2

[22] = tested on: K. pneumoniae ATCC 700603; assay: MIC, broth microdilution; type: cell-based; conditions: Klebsiella pneumoniae, ATCC700603; K. pneumoniae ATCC 700603, ciprofloxacin-susceptible
Protocol: as §2

[23] = average of two replicate experiments, read-out: IC50 Human Topoisomerase II decatenation (average)
[24] = replicate Assay 1, read-out: IC50 Human Topoisomerase II (TopoII) decatenation, Assay 1
[25] = replicate Assay 2, read-out: IC50 Human Topoisomerase II (TopoII) decatenation, Assay 2
[26] = IC50 E. coli Topoisomerase IV decatenation (average), average of two replicate experiments
[27] = IC50 E. coli Topoisomerase IV decatenation, Assay 1, replicate Assay 1
[28] = IC50 E. coli Topoisomerase IV decatenation, Assay 2, replicate Assay 2
[29] = replicate Assay 1, read-out: IC50 S. aureus Topoisomerase IV decatenation, Assay 1
[30] = replicate Assay 2, read-out: IC50 S. aureus Topoisomerase IV decatenation, Assay 2
[31] = ATCC29213, S. aureus ATCC 29213, ciprofloxacin-susceptible
[32] = IC50 E. coli Gyrase Supercoiling (average), average of two replicate experiments
[33] = IC50 E. coli gyrase Supercoiling, Assay 1, replicate Assay 1
[34] = IC50 E. coli gyrase Supercoiling, Assay 2, replicate Assay 2
[35] = average of two replicate experiments, read-out: IC50 S. aureus Gyrase Supercoiling (average)
[36] = replicate Assay 1, read-out: IC50 S.aureus gyrase Supercoiling, Assay 1
[37] = replicate Assay 2, read-out: IC50 S.aureus gyrase Supercoiling, Assay 2

T5 sequence (P20831 whole entry): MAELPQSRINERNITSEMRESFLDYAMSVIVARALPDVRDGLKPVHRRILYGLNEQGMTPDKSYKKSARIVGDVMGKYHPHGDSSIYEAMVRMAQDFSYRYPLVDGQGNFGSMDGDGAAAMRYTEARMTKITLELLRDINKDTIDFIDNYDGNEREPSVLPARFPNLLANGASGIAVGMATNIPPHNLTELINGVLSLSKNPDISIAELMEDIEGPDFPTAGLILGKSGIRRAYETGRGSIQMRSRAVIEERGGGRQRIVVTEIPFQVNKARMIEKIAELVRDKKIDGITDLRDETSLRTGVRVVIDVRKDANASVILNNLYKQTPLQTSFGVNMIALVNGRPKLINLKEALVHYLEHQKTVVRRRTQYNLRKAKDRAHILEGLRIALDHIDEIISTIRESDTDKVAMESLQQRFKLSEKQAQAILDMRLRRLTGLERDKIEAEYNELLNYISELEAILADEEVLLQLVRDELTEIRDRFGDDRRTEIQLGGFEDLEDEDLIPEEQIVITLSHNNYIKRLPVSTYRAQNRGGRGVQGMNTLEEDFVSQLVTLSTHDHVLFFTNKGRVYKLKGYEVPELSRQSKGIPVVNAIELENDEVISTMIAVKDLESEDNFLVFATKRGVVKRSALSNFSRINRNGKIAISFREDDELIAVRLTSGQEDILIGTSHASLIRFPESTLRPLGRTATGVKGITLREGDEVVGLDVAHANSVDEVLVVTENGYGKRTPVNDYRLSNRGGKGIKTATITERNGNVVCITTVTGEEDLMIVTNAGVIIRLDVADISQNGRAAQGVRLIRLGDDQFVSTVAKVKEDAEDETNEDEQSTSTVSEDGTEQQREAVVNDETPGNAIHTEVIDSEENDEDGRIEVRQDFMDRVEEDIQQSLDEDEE
T5 sequence (P0A0K8 whole entry partner): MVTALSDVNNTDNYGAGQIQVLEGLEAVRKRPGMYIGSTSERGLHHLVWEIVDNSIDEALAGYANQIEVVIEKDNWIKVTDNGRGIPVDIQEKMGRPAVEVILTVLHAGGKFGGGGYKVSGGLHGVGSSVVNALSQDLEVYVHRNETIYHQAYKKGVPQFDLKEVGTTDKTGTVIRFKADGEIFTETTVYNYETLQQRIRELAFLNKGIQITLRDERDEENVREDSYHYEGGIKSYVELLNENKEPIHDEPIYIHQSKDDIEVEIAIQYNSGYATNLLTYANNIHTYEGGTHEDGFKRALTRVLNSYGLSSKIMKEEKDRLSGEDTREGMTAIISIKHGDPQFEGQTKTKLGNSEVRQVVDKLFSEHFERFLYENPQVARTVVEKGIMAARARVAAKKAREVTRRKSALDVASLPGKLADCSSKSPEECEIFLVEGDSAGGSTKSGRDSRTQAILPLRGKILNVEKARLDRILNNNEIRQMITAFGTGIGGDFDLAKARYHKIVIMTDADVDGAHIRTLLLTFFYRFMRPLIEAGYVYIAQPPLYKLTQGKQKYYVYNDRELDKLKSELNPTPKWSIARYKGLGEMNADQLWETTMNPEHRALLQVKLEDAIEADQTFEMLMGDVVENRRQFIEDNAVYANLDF
T3 sequence (P0C1S7 whole entry): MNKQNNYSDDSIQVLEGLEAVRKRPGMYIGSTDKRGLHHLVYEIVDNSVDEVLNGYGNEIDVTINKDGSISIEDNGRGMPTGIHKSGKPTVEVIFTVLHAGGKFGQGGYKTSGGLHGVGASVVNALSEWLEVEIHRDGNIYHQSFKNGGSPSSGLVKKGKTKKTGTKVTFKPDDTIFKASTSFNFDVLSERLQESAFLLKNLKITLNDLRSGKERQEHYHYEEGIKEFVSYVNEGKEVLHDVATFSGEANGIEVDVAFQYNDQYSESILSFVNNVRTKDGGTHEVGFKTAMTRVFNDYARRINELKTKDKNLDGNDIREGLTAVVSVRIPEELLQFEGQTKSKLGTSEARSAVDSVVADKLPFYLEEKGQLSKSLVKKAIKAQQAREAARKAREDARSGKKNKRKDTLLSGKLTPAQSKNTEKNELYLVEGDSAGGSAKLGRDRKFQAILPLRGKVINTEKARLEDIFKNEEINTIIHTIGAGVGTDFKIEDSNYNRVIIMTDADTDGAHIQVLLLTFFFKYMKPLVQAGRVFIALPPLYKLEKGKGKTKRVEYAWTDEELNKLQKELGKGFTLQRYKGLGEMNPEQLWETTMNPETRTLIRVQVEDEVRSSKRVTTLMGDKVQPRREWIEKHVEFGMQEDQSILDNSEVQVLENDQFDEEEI
T3 sequence (P0C1U9 whole entry): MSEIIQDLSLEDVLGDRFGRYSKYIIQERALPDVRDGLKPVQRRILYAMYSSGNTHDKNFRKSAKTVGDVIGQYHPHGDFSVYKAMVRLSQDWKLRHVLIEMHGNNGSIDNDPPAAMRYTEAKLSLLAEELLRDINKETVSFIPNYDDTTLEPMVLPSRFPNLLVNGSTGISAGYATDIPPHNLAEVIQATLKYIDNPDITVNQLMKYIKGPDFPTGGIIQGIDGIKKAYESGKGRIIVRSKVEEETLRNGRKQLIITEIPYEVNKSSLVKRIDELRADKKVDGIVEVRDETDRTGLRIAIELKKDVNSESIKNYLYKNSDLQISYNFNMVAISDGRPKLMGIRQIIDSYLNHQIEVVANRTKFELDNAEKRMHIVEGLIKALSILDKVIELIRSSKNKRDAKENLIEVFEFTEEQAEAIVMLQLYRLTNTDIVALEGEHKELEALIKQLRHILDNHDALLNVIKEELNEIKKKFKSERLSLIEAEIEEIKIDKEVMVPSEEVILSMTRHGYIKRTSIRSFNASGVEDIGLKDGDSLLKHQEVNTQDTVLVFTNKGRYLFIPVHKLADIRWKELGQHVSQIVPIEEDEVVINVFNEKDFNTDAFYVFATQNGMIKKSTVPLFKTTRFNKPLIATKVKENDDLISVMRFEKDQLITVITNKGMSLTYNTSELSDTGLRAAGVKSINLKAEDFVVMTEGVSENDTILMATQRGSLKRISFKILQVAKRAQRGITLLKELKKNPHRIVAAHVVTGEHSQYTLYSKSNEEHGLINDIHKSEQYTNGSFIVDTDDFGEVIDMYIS
T2 sequence (P20083 whole entry): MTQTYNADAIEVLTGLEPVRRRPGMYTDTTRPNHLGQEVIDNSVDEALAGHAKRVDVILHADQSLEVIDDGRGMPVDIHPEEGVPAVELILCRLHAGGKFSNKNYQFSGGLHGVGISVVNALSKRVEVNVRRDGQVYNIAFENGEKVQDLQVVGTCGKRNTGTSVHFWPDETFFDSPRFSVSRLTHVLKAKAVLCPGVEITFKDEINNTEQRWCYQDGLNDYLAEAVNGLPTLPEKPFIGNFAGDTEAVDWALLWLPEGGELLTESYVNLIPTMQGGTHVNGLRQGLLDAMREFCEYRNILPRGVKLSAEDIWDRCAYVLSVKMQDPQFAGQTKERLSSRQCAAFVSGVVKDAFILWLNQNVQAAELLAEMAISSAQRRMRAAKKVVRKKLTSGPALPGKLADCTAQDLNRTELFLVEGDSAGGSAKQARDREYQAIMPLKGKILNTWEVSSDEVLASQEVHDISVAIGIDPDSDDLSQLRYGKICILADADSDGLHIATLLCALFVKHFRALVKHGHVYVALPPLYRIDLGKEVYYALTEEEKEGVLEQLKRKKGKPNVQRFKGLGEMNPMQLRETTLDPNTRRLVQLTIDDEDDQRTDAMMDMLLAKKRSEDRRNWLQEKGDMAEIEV
T2 sequence (P0AFI2 whole entry): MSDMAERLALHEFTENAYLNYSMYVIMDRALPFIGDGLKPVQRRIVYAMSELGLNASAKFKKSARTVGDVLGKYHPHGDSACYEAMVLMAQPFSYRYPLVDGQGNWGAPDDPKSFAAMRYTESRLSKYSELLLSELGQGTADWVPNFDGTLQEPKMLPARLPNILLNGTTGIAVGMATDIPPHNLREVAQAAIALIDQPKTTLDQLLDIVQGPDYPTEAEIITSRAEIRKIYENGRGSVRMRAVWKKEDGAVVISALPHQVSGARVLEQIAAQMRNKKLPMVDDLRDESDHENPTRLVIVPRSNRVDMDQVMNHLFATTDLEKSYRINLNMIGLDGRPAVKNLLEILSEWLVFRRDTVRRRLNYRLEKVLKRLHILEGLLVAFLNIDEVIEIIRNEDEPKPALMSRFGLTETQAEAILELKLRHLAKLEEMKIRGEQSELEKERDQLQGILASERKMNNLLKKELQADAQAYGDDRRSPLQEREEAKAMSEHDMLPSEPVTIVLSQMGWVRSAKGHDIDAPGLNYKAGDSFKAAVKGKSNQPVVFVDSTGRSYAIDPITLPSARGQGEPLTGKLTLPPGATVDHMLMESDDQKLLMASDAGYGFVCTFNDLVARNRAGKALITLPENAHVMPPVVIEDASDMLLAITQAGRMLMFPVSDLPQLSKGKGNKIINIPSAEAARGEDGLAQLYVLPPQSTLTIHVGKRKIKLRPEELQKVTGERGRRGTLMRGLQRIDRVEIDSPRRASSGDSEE

Compound | IC50 [1, 23] | IC50 [1, 24] [nM] | IC50 [1, 25] [nM] | MIC [2] [µg/mL] | MIC [3] [µg/mL] | MIC [4] [µg/mL] | MIC [5] [µg/mL] | MIC [6] [µg/mL] | IC50 [7, 26] [nM] | IC50 [7, 27] [nM] | IC50 [7, 28] [nM] | IC50 [8, 29] [nM] | IC50 [8, 30] [nM] | MIC fold lower than that of ciprofloxacin [9] | MIC [9, 31] [µg/mL] | MIC [10] [µg/mL] | MIC50 [11] [µg/mL] | MIC90 [11] [µg/mL] | MIC [11] [µg/mL] | MIC50 [12] [µg/mL] | other results
Cl.N#Cc1ccc2ccc(=O)n([C@H]3CC[C@H](NCc4cc5c(=O)oc6ccc(F)cc6c5[nH]4)CC3)c2c1 [Compound 2, 1-(trans-4-{[(8-fluoro-4-oxo-1,4-dihydro[1]benzopyrano[4,3-b]pyrrol-2-yl)methyl]amino}cyclohexyl)-2-oxo-1,2-dihydroquinoline-7-carbonitrile hydrochloride] | 6000 nM | 6000 | 7000 | ≤ 0.06 | 0.12 | 0.06 | 0.03 | 0.06 | 130 | 100 | 160 | < 100 | < 100 | approximately 10 fold | 0.03 | ≤ 0.016 | 0.12 | 0.12 | 0.06 to 0.12 | 0.12 | IC50 ([8]; average of two replicate experiments, read-out: IC50 S. aureus Topoisomerase IV decatenation (average)): < 100 nM; MIC ([9]; ATCC29213, S. aureus ATCC29213, ref strain, S4 File): ≤ 0.06 µg/mL; MIC90 [12]: 0.25 µg/mL; MIC [12]: 0.06 to 1 µg/mL; MIC range [13]: 0.004 to 0.12 µg/mL; MIC50 [13]: 0.06 µg/mL; MIC90 [13]: 0.12 µg/mL; IC50 [14, 32]: 50 nM; IC50 [14, 33]: 40 nM; IC50 [14, 34]: 50 nM; IC50 [15, 35]: < 100 nM; IC50 [15, 36]: < 100 nM; IC50 [15, 37]: < 100 nM; MIC [16]: 0.25 µg/mL; MIC [17]: 0.016 µg/mL; MIC [18]: 2 µg/mL; MIC [19]: ≤ 0.06 µg/mL; MIC [20]: 0.5 µg/mL; MIC [21]: 0.5 µg/mL; MIC [22]: > 8 µg/mL
Cl.O=c1oc2ccc(F)cc2c2[nH]c(CN[C@H]3CC[C@H](n4c(=O)ccc5ccc(F)cc54)CC3)cc12 [Compound 6, 8-fluoro-2-({[trans-4-(7-fluoro-2-oxoquinolin-1(2H)-yl)cyclohexyl]amino}methyl)[1]benzopyrano[4,3-b]pyrrol-4(1H)-one hydrochloride] | 10100 nM and 10000 nM | 13000 | 7300 | 0.03 | 0.06 | 0.03 | 0.03 | 0.03 | 250 | 270 | 220 | 310 | 260 | approximately 10 fold | ≤ 0.06 | ≤ 0.016 | 0.12 | 0.12 | 0.06 to 0.12 | 0.25 | IC50 [8]: 290 nM; MIC90 [12]: 0.25 µg/mL; MIC [12]: 0.06 to 1 µg/mL; MIC range [13]: 0.008 to 0.06 µg/mL; MIC50 [13]: 0.03 µg/mL; MIC90 [13]: 0.06 µg/mL; IC50 [14, 32]: 130 nM; IC50 [14, 33]: 130 nM; IC50 [14, 34]: 120 nM; IC50 [15, 35]: 310 nM; IC50 [15, 36]: 270 nM; IC50 [15, 37]: 350 nM; MIC [16]: 0.25 µg/mL; MIC [17]: ≤ 0.06 µg/mL; MIC [18]: 4 µg/mL; MIC [19]: 0.12 µg/mL; MIC [20]: 0.5 µg/mL; MIC [21]: 0.25 µg/mL; MIC [22]: 8 µg/mL

From article PMC7029851, “Antibacterial activity of novel dual bacterial DNA type II topoisomerase inhibitors” (PLoS ONE, 2020)
